From patent publication US8367873B2, “Phenyl-substituted bicyclooctane-1,3-dione derivatives” (Bayer Cropscience AG, priority 2008, dated 2013)

Columns and labels:
Format in all cases: in vivo
[1] = test system: monocotylidonous and dicotylidonous weed and crop plants; experiment: Herbicidal pre-emergence action (other test plants); settings: pre-emergence method, 80 g/ha, greenhouse, visual assessment vs untreated controls
Outline: (§1)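 Visual percent effect relative to untreated controls (0% = like control, 100% = dead) assessed three weeks after treatment in the greenhouse. Compounds, as wettable powders in water (600 l/ha, 0.2% wetting agent), were sprayed at different amounts onto covering soil over seeds sown in sandy loam.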

[2] = test system: monocotylidonous and dicotylidonous weed and crop plants; experiment: Herbicidal post-emergence action (other test plants); settings: post-emergence method, 80 g/ha
Outline: (§2)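 Percent herbicidal effect (0% like control, 100% plants dead) was rated by eye roughly three weeks post-treatment. Treatment was a post-emergence spray of wettable-powder formulations at different doses, 600 l/ha water with 0.2% wetter, onto one-leaf-stage weeds and crops grown in greenhouse pots.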

cereals = experiment: Container trials with cereals in the greenhouse, use of safeners (Mefenpyr 1 day prior to herbicide application)
Method: Seeds of monocotylidonous and dicotylidonous weed and crop plants are placed in sandy loam in wood fibre pots, covered with soil and cultivated in a greenhouse under good growth conditions. Two to three weeks after sowing, the test plants are treated at the one-leaf stage. The test compounds, formulated as wettable powders (WP), are then with a water application rate of 600 l/ha (converted), with 0.2% of wetting agent added, sprayed onto the green parts of the plants in different amounts. After the test plants have been kept in the greenhouse under optimum growth conditions for about three weeks, the effect of the preparations is assessed visually in comparison to untreated controls (herbicidal effect in percent: 100% effect=the plants have died, 0% effect=like control plants).
If it is to be additionally tested as to whether safeners can improve the plant compatibility of test substances in the case of crop plants, the following options are used for applying the safeners: • Seeds of the crop plants are, before sowing, dressed with safener substance (the amount of safener stated in percent, based on the weight of the seed) • Before the application of the test substances, the crop plants are sprayed with the safener at a certain application rate per hectare (usually one day before the application of the test substances) • The safener is applied together with the test substance as a tank mix (the amount of safener stated in g/ha or as a ratio, based on the herbicide).
Container Trials with Cereals in the Greenhouse

Setaria viridis [3] = experiment: Herbicidal post-emergence action; settings: post-emergence method, 80 g/ha
Outline: as §2

Lolium multiflorum [4] = experiment: Herbicidal post-emergence action; settings: post-emergence method, 80 g/ha
Outline: as §2

Alopecurus myosuroides [5] = experiment: Herbicidal post-emergence action; settings: post-emergence method, 80 g/ha
Outline: as §2

Echinocloa crus-galli [6] = experiment: Herbicidal post-emergence action; settings: post-emergence method, 80 g/ha
Outline: as §2

Setaria viridis [7] = experiment: Herbicidal pre-emergence action; settings: pre-emergence method, 80 g/ha, greenhouse, visual assessment vs untreated controls
Outline: as §1

Lolium multiflorum [8] = experiment: Herbicidal pre-emergence action; settings: pre-emergence method, 80 g/ha, greenhouse, visual assessment vs untreated controls
Outline: as §1

Alopecurus myosuroides [9] = experiment: Herbicidal pre-emergence action; settings: pre-emergence method, 80 g/ha, greenhouse, visual assessment vs untreated controls
Outline: as §1

Echinocloa crus-galli [10] = experiment: Herbicidal pre-emergence action; settings: pre-emergence method, 80 g/ha, greenhouse, visual assessment vs untreated controls
Outline: as §1

[11] = 28 days after application, 50 g of a.i./ha
[12] = 28 days after application, 100 g of a.i./ha
[13] = 28 days after application, 12.5 g of a.i./ha
[14] = 28 days after application, 25 g of a.i./ha

SMILES	herbicidal effect AVEFA [1]	herbicidal effect against AVEFA (Avena fatua) [2]	herbicidal effect against SETVI (Setaria viridis) (Setaria viridis [3])	herbicidal effect against LOLMU (Lolium multiflorum) (Lolium multiflorum [4])	herbicidal effect against ALOMY (Alopecurus myosuroides) (Alopecurus myosuroides [5])	herbicidal effect against ECHCG (Echinochloa crus-galli) (Echinocloa crus-galli [6])	herbicidal effect SETVI (Setaria viridis [7])	herbicidal effect LOLMU (Lolium multiflorum [8])	herbicidal effect ALOMY (Alopecurus myosuroides [9])	herbicidal effect ECHCG (Echinocloa crus-galli [10])	other results
CCc1cc(C)cc(CC)c1C1=C(O)C2CC3(CC2C1=O)OCC(C)O3 (mixture of isomers) [I-a-10]	50%	80%	90%	100%	90%	100%	60%	100%	70%	80%	Summer wheat observed (%) (cereals; 10 days after application, 12.5 g of a.i./ha): 30%; Summer wheat observed (%) (cereals; 10 days after application, 25 g of a.i./ha): 50%; Summer wheat observed (%) (cereals; 10 days after application, 50 g of a.i./ha): 60%
CCOC(=O)OC1=C(c2c(CC)cc(C)cc2CC)C(=O)C2CC3(CC12)OC(C)CC(C)O3 (mixture of isomers) [I-c-10]	80%	100%	90%	100%	90%		90%	100%	100%	100%	Summer barley observed (%) (cereals; [11]): 50%; Summer barley observed (%) (cereals; [12]): 95%; Summer wheat observed (%) (cereals; [13]): 15%; Summer wheat observed (%) (cereals; [14]): 50%; Summer wheat observed (%) (cereals; [11]): 95%
CCc1cc(C)cc(CC)c1C1=C([O-])C2CC3(CC2C1=O)OC(C)CC(C)O3.[Na+] (mixture of isomers) [I-f-19]	60%	100%	100%	100%	100%	100%	100%	100%	100%	100%	Summer barley observed (%) (cereals; [13]): 10%; Summer barley observed (%) (cereals; [14]): 10%; Summer barley observed (%) (cereals; [11]): 20%; Summer barley observed (%) (cereals; [12]): 50%; Summer wheat observed (%) (cereals; [13]): 20%; Summer wheat observed (%) (cereals; [14]): 90%; Summer wheat observed (%) (cereals; [11]): 97%; Summer wheat observed (%) (cereals; [12]): 99%
CCc1cc(C)cc(C)c1C1=C(O)C2CC3(CC2C1=O)OCCCO3 (stereo not shown) [I-a-58]	70%		100%	100%	100%	100%	100%	100%	70%	100%	Summer barley observed (%) (cereals; [14]): 5%; Summer barley observed (%) (cereals; [11]): 10%; Summer barley observed (%) (cereals; [12]): 15%; Summer wheat observed (%) (cereals; [13]): 10%; Summer wheat observed (%) (cereals; [14]): 15%; Summer wheat observed (%) (cereals; [11]): 20%; Summer wheat observed (%) (cereals; [12]): 60%
Cc1cc(C)c(C2=C([O-])C3CC4(CC3C2=O)OCCO4)c(C)c1.[Na+] (stereo not shown) [I-f-11]	50%	40%	80%	100%	60%	90%	20%	100%	40%	0%	
CCc1cc(C)cc(CC)c1C1=C([O-])C2CC3(CC2C1=O)OCC=CCO3.[Na+] (stereo not shown) [I-f-12]	70%	100%	100%	100%	100%	100%	90%	70%	100%	100%	
CCc1cc(C)cc(CC)c1C1=C([O-])C2CC3(CC2C1=O)OCC(OC)CO3.[Na+] (stereo not shown) [I-f-13]	0%	100%	100%	100%	100%	100%	90%	100%	100%	100%	
CCOC1COC2(CC3C(=O)C(c4c(CC)cc(C)cc4CC)=C([O-])C3C2)OC1.[Na+] (stereo not shown) [I-f-14]	70%	100%	100%	100%	100%	100%	100%	100%	100%	100%	
CCc1cc(C)cc(CC)c1C1=C([O-])C2CC3(CC2C1=O)OCCO3.[Na+] (stereo not shown) [I-f-15]	60%	90%	100%	100%	80%	100%	90%	100%	100%	100%	
CCc1cc(C)cc(CC)c1C1=C([O-])C2CC3(CC2C1=O)OCC(OCc1ccccc1)CO3.[Na+] (stereo not shown) [I-f-16]	80%	100%	100%	100%	100%	100%	90%	90%	80%	60%	
CCc1cc(C)cc(CC)c1C1=C([O-])C2CC3(CC2C1=O)OCCCCO3.[Na+] (stereo not shown) [I-f-17]	60%	100%	100%	100%	100%	100%	90%	100%	80%	90%	
C=C1COC2(CC3C(=O)C(c4c(CC)cc(C)cc4CC)=C([O-])C3C2)OC1.[Na+] (stereo not shown) [I-f-20]	70%	100%	100%	100%	100%	100%	100%	100%	100%	100%	
C=C1CC2C(=O)C(c3c(CC)cc(C)cc3CC)=C([O-])C2C1.[Na+] (stereo not shown) [I-f-21]	70%	80%	100%	100%	80%	100%	90%	100%	90%	100%	
